Assay results from patent publication US9849136B2, “Thiazole and oxazole-substituted arylamides as P2X3 and P2X2/3 antagonists” (Roche Palo Alto LLC, priority 2006, dated 2017).

Tests used:
[1] = molecular target: T1, human P2X2/3 receptor (Homo sapiens, UniProt P56373+Q9UBL9); experiment: P2X2/3 FLIPR (Fluorometric Imaging Plate Reader) assay; assay type: cell-based; details: CHO-K1 cells transfected with human P2X2/3; agonist α,β-meATP 5 μM; Fluo-3 calcium fluorescence
T1 construct: expressed in transfected cells; host or cells: CHO-K1
T1 sequence (Q9UBL9 1-471): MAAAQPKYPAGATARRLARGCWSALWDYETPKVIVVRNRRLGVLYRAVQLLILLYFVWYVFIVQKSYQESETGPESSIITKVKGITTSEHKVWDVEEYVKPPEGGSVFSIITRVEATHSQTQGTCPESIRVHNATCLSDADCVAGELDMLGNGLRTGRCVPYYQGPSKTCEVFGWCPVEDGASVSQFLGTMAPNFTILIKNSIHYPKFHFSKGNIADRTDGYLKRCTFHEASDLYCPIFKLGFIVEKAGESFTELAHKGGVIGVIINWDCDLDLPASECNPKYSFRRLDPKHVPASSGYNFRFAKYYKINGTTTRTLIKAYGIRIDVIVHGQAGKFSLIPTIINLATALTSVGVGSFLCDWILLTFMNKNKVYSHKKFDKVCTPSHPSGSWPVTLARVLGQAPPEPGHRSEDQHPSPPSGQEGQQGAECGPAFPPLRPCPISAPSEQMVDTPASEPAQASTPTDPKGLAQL
T1 sequence (P56373 1-397): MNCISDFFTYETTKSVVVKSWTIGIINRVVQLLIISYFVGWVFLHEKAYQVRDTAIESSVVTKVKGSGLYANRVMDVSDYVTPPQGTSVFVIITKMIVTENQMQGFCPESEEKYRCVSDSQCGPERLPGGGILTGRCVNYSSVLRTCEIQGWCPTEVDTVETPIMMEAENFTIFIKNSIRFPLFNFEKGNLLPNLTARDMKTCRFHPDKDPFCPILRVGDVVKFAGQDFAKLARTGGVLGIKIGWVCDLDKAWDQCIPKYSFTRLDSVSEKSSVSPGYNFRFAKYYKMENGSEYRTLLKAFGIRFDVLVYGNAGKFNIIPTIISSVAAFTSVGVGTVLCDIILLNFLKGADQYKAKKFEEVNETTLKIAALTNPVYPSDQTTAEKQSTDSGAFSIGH
Protocol: (§1) CHO-Kl cells were transfected with cloned rat P2X3 or human P2X2/3 receptor subunits and passaged in flasks. 18-24 hours before the FLIPR experiment, cells were released from their flasks, centrifuged, and resuspended in nutrient medium at 2.5×10^5 cells/ml. The cells were aliquoted into black-walled 96-well plates at a density of 50,000 cells/well and incubated overnight in 5% CO2 at 37° C. On the day of the experiment, cells were washed in FLIPR buffer (calcium- and magnesium-free Hank's balanced salt solution, 10 mM HEPES, 2 mM CaCl2, 2.5 mM probenecid; FB). Each well received 100 μl FB and 100 μl of the fluorescent dye Fluo-3 AM [2 μM final conc.]. […]
(§2) Test compounds (dissolved in DMSO at 10 mM and serially diluted with FB) or vehicle were added to each well (25 μl of a 4× solution) and allowed to equilibrate for 20 minutes at room temperature. The plates were then placed in the FLIPR and a baseline fluorescence measurement (excitation at 488 nm and emission at 510-570 nm) was obtained for 10 seconds before a 100 μl/well agonist or vehicle addition. […] Fluorescence was measured for an additional 2 minutes at 1 second intervals after agonist addition. A final addition of ionomycin (5 μM, final concentration) was made to each well of the FLIPR test plate to establish cell viability and maximum fluorescence of dye-bound cytosolic calcium. […]

[2] = molecular target: T2, rat P2X3 receptor (Rattus norvegicus, UniProt P49654); experiment: P2X3 FLIPR (Fluorometric Imaging Plate Reader) assay; assay type: cell-based; details: CHO-K1 cells transfected with cloned rat P2X3; agonist α,β-meATP 1 μM; Fluo-3 calcium fluorescence
T2 construct: expressed in transfected cells; host or cells: CHO-K1
T2 sequence (P49654 1-397): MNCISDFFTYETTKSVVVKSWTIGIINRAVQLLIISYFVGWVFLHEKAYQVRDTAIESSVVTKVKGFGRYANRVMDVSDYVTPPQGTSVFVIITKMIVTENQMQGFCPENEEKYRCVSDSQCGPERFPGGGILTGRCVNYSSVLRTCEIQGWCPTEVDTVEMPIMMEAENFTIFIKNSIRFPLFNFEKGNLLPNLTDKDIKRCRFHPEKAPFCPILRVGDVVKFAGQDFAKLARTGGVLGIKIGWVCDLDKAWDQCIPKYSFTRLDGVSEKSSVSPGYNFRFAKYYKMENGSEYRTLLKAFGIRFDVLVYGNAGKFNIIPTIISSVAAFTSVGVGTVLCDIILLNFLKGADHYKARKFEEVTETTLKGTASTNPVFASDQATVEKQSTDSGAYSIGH
Protocol: as §1, §2

pKi for the P2X2/3 receptor [1] | pIC50 for the P2X3 receptor [2] | SMILES
approximately 7.30 |  | Cc1ccc(-c2cc(C(=O)N[C@H](C)CN3CCOCC3)cc(-c3scnc3C)c2)cc1 [Compound 43, (R)-4′-Methyl-5-(4-methyl-thiazol-5-yl)-biphenyl-3-carboxylic acid (1-methyl-2-morpholin-4-yl-ethyl)-amide]
 | approximately 8.24 | Cc1ccc(-c2cc(C(=O)N[C@@H](C)CO)cc(-c3scnc3C)c2)cc1 [Compound 45, (S)-4′-Methyl-5-(4-methyl-thiazol-5-yl)-biphenyl-3-carboxylic acid (2-hydroxy-1-methyl-ethyl)-amide]
